Source: patent US10995101B2, “2-oxo-thiazole derivatives as A2A inhibitors and compounds for use in the treatment of cancers” (iTeos Therapeutics SA, priority 2017, dated 2021)

Target: A2A receptor (Homo sapiens, UniProt P29274)
Experiment: Inhibition of cAMP production in HEK cells
Format: cell-based
Conditions: HEK-293 cells with A2A receptor
Procedure: When the A2A receptor is activated, is induces the production of cAMP.
HEK-293 cells with a stable transfection of A2A receptor were bought from PerkinElmer® (# ES-011-C). […] Fresh media without the selection marker was added on the day immediately before the experiment to stop selection pressure.
Stimulation buffer b) mimics the human situation by increasing the amount of albumin present in the assay.
Compounds of the present invention were diluted 100× in either of the buffers depending on the assay performed. […] The total volume of the reaction was 20 μl (10 μl of cells, 5 μl of antagonist and 5 μl of agonist). The reaction was finalized by adding 10 μl of 4× EU-cAMP tracer working solution and 10 μl of 4× ULight-anti-cAMP working solution. The TR-FRET signal was measured after 1 hour using a Spectramax Paradigm (Molecular Devices).

[1] = IC50 (nM) (3 nM NECA as agonist, 0.1% BSA), 3 nM NECA as agonist, 0.1% BSA
[2] = IC50 (nM) (5 nM NECA as agonist, 2% HSA), 5 nM NECA as agonist, 2% HSA
[3] = IC50 (nM) (5 μM Adenosine as agonist, 2.0% HSA), 5 μM Adenosine as agonist, 2.0% HSA

A2A receptor, sequence (P29274 whole entry): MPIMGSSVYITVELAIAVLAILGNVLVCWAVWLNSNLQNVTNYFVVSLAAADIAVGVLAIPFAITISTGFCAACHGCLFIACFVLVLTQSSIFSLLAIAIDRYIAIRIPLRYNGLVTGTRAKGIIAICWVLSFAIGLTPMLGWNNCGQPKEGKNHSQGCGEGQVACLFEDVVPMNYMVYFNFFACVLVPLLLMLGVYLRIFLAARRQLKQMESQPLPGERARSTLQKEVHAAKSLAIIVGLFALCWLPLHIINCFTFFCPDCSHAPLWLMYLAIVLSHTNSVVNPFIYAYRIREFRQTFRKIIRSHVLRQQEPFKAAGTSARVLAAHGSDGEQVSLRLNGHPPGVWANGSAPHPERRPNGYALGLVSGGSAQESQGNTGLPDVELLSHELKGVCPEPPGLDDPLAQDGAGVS

SMILES | IC50 [1] [nM] | IC50 [2] [nM] | IC50 [3] [nM]
C[C@H](Oc1ccc(N2CCN(CCn3c(=O)sc4c3nc(N)n3nc(-c5ccco5)nc43)CC2)c(F)c1)C(=O)O (single isomer, unassigned) [Compound 38] | 0.3 | 9 | 552
C[C@@H](Oc1ccc(N2CCN(CCn3c(=O)sc4c3nc(N)n3nc(-c5ccco5)nc43)CC2)c(F)c1)C(=O)O (single isomer, unassigned) [Compound 53] | – | 4 | 127
C[C@H](Oc1cc(N2CCN(CCn3c(=O)sc4c3nc(N)n3nc(-c5ccco5)nc43)CC2)c(F)cc1F)C(=O)O (single isomer, unassigned) [Compound 60] | 0.8 | 4 | 240
C[C@@H](Oc1cc(N2CCN(CCn3c(=O)sc4c3nc(N)n3nc(-c5ccco5)nc43)CC2)c(F)cc1F)C(=O)O (single isomer, unassigned) [Compound 61] | 0.9 | 15 | 810
Nc1nc2c(sc(=O)n2CCN2CCN(c3ccc(OCCN4CCOCC4)cc3)CC2)c2nc(-c3ccco3)nn12 [Compound 16, 5-amino-8-(furan-2-yl)-3-(2-(4-(4-(2-morpholinoethoxy)phenyl)piperazin-1-yl)ethyl)thiazolo[5,4-e][1,2,4]triazolo[1,5-c]pyrimidin-2(3H)-one] | 3.2 | 14 | –
NC(=O)c1cccc(N2CCN(CCn3c(=O)sc4c3nc(N)n3nc(-c5ccco5)nc43)CC2)c1 [Compound 22, 3-(4-(2-(5-amino-8-(furan-2-yl)-2-oxothiazolo[5,4-e][1,2,4]triazolo[1,5-c]pyrimidin-3(2H)-yl)ethyl)piperazin-1-yl)benzamide] | 1.4 | 6 | 352
Nc1nc2c(sc(=O)n2CCN2CCN(c3cccc(OCCO)c3)CC2)c2nc(-c3ccco3)nn12 [Compound 23, 5-amino-8-(furan-2-yl)-3-(2-(4-(3-(2-hydroxyethoxy)phenyl)piperazin-1-yl)ethyl)thiazolo[5,4-e][1,2,4]triazolo[1,5-c]pyrimidin-2(3H)-one] | 0.6 | – | –
Nc1nc2c(sc(=O)n2CCN2CCN(c3ccc(S(=O)(=O)N4CCNCC4)cc3F)CC2)c2nc(-c3ccco3)nn12 [Compound 28, 5-amino-3-(2-(4-(2-fluoro-4-(piperazin-1-ylsulfonyl)phenyl)piperazin-1-yl)ethyl)-8-(furan-2-yl)thiazolo[5,4-e][1,2,4]triazolo[1,5-c]pyrimidin-2(3H)-one] | 0.2 | 4 | 115
Nc1nc2c(sc(=O)n2CCN2CCN(c3c(F)cc(OCC(=O)O)cc3F)CC2)c2nc(-c3ccco3)nn12 [Compound 36, 2-(4-(4-(2-(5-amino-8-(furan-2-yl)-2-oxothiazolo[5,4-e][1,2,4]triazolo[1,5-c]pyrimidin-3(2H)-yl)ethyl)piperazin-1-yl)-3,5-difluorophenoxy)acetic acid] | 0.7 | 8 | 260
CC(Oc1ccc(N2CCN(CCn3c(=O)sc4c3nc(N)n3nc(-c5ccco5)nc43)CC2)c(F)c1)C(=O)O (stereo not drawn) [Compound 37, 2-(4-(4-(2-(5-amino-8-(furan-2-yl)-2-oxothiazolo[5,4-e][1,2,4]triazolo[1,5-c]pyrimidin-3(2H)-yl)ethyl)piperazin-1-yl)-3-fluorophenoxy)propanoic acid] | 0.8 | 9 | 398
Nc1nc2c(sc(=O)n2CCN2CCN(c3ccc(OCCCC(=O)O)cc3F)CC2)c2nc(-c3ccco3)nn12 [Compound 41, 4-(4-(4-(2-(5-amino-8-(furan-2-yl)-2-oxothiazolo[5,4-e][1,2,4]triazolo[1,5-c]pyrimidin-3(2H)-yl)ethyl)piperazin-1-yl)-3-fluorophenoxy)butanoic acid] | 0.8 | 14 | 423
Nc1nc2c(sc(=O)n2CCN2CCN(c3ccc(F)c(OCC(=O)O)c3F)CC2)c2nc(-c3ccco3)nn12 [Compound 42, 2-(3-(4-(2-(5-amino-8-(furan-2-yl)-2-oxothiazolo[5,4-e][1,2,4]triazolo[1,5-c]pyrimidin-3(2H)-yl)ethyl)piperazin-1-yl)-2,6-difluorophenoxy)acetic acid] | 0.4 | 19 | 332
CNCCN(C)C(=O)COc1ccc(N2CCN(CCn3c(=O)sc4c3nc(N)n3nc(-c5ccco5)nc43)CC2)c(F)c1 [Compound 58, 2-(4-(4-(2-(5-amino-8-(furan-2-yl)-2-oxothiazolo[5,4-e][1,2,4]triazolo[1,5-c]pyrimidin-3(2H)-yl)ethyl)piperazin-1-yl)-3-fluorophenoxy)-N-methyl-N-(2-(methylamino)ethyl)acetamide] | 0.3 | 1 | 41
CC(C)(Oc1cc(N2CCN(CCn3c(=O)sc4c3nc(N)n3nc(-c5ccco5)nc43)CC2)c(F)cc1F)C(=O)O [Compound 59, 2-(5-(4-(2-(5-amino-8-(furan-2-yl)-2-oxothiazolo[5,4-e][1,2,4]triazolo[1,5-c]pyrimidin-3(2H)-yl)ethyl)piperazin-1-yl)-2,4-difluorophenoxy)-2-methylpropanoic acid] | 0.9 | 21 | 1070

Next, values leading:

IC50 [1] [nM] | IC50 [2] [nM] | IC50 [3] [nM] | SMILES
2 | – | – | NC(=O)COc1ccc(N2CCN(CCn3c(=O)sc4c3nc(N)n3nc(-c5ccco5)nc43)CC2)cc1 [Compound 11, 2-(4-(4-(2-(5-amino-8-(furan-2-yl)-2-oxothiazolo[5,4-e][1,2,4]triazolo[1,5-c]pyrimidin-3(2H)-yl)ethyl)piperazin-1-yl)phenoxy)acetamide]
14.2 | – | – | Nc1nc2c(sc(=O)n2CCN2CCN(c3ccc(OCC(O)CO)cc3)CC2)c2nc(-c3ccco3)nn12 (stereo not drawn) [Compound 12, 5-amino-3-(2-(4-(4-(2,3-dihydroxypropoxy)phenyl)piperazin-1-yl)ethyl)-8-(furan-2-yl)thiazolo[5,4-e][1,2,4]triazolo[1,5-c]pyrimidin-2(3H)-one]
0.6 | 2 | 63 | NCCOc1ccc(N2CCN(CCn3c(=O)sc4c3nc(N)n3nc(-c5ccco5)nc43)CC2)cc1 [Compound 13, 5-amino-3-(2-(4-(4-(2-aminoethoxy)phenyl)piperazin-1-yl)ethyl)-8-(furan-2-yl)thiazolo[5,4-e][1,2,4]triazolo[1,5-c]pyrimidin-2(3H)-one]
0.7 | 11 | 567 | NC(=O)c1ccc(N2CCN(CCn3c(=O)sc4c3nc(N)n3nc(-c5ccco5)nc43)CC2)cc1 [Compound 14, 4-(4-(2-(5-amino-8-(furan-2-yl)-2-oxothiazolo[5,4-e][1,2,4]triazolo[1,5-c]pyrimidin-3(2H)-yl)ethyl)piperazin-1-yl)benzamide]
2.6 | – | – | CNC(=O)c1ccc(N2CCN(CCn3c(=O)sc4c3nc(N)n3nc(-c5ccco5)nc43)CC2)cc1 [Compound 15, 4-(4-(2-(5-amino-8-(furan-2-yl)-2-oxothiazolo[5,4-e][1,2,4]triazolo[1,5-c]pyrimidin-3(2H)-yl)ethyl)piperazin-1-yl)-N-methylbenzamide]
1 | – | – | CN(C)CCOc1ccc(N2CCN(CCn3c(=O)sc4c3nc(N)n3nc(-c5ccco5)nc43)CC2)cc1 [Compound 17, 5-amino-3-(2-(4-(4-(2-(dimethylamino)ethoxy)phenyl)piperazin-1-yl)ethyl)-8-(furan-2-yl)thiazolo[5,4-e][1,2,4]triazolo[1,5-c]pyrimidin-2(3H)-one]
1.7 | 85 | 2170 | Nc1nc2c(sc(=O)n2CCN2CCN(c3ccc(S(N)(=O)=O)cc3)CC2)c2nc(-c3ccco3)nn12 [Compound 18, 4-(4-(2-(5-amino-8-(furan-2-yl)-2-oxothiazolo[5,4-e][1,2,4]triazolo[1,5-c]pyrimidin-3(2H)-yl)ethyl)piperazin-1-yl)benzenesulfonamide]
2.6 | – | – | CNS(=O)(=O)c1ccc(N2CCN(CCn3c(=O)sc4c3nc(N)n3nc(-c5ccco5)nc43)CC2)cc1 [Compound 19, 4-(4-(2-(5-amino-8-(furan-2-yl)-2-oxothiazolo[5,4-e][1,2,4]triazolo[1,5-c]pyrimidin-3(2H)-yl)ethyl)piperazin-1-yl)-N-methylbenzenesulfonamide]
1.9 | 352 | – | CS(=O)(=O)c1ccc(N2CCN(CCn3c(=O)sc4c3nc(N)n3nc(-c5ccco5)nc43)CC2)cc1 [Compound 20, 5-amino-8-(furan-2-yl)-3-(2-(4-(4-(methylsulfonyl)phenyl)piperazin-1-yl)ethyl)thiazolo[5,4-e][1,2,4]triazolo[1,5-c]pyrimidin-2(3H)-one]
1.6 | 52 | 1310 | C[S+]([O-])c1ccc(N2CCN(CCn3c(=O)sc4c3nc(N)n3nc(-c5ccco5)nc43)CC2)cc1 (stereo not drawn) [Compound 21, 5-amino-8-(furan-2-yl)-3-(2-(4-(4-(methylsulfinyl)phenyl)piperazin-1-yl)ethyl)thiazolo[5,4-e][1,2,4]triazolo[1,5-c]pyrimidin-2(3H)-one]
0.4 | 11 | 350 | CS(=O)(=O)c1ccc(N2CCN(CCn3c(=O)sc4c3nc(N)n3nc(-c5ccco5)nc43)CC2)c(F)c1 [Compound 29, 5-amino-3-(2-(4-(2-fluoro-4-(methylsulfonyl)phenyl)piperazin-1-yl)ethyl)-8-(furan-2-yl)thiazolo[5,4-e][1,2,4]triazolo[1,5-c]pyrimidin-2(3H)-one]
